For 6 compounds, speed of sound and mass density results are on record in the NIST ThermoML archive (doi:10.1016/j.jct.2012.02.007).

The conditions of this data set: 101.33 kPa, Liquid; for speed of sound: Sing-around technique in a fixed-path interferometer; for mass density: Vibrating tube method.

± gives the expanded uncertainty stated by the source.

Take `CCCCO` [butan-1-ol]: the speed of sound is, setting by setting: (293.15 K) 1256.7 ± 0.8 m/s; (308.15 K) 1206.5 ± 0.8 m/s; (323.15 K) 1156.9 ± 0.8 m/s. The mass density (293.15 K) is recorded as 809.53 ± 0.12 kg/m3, the mass density (308.15 K) amounted to 798.06 ± 0.12 kg/m3 and the mass density (323.15 K) was determined as 786.21 ± 0.12 kg/m3.

As to `CCCCn1cc[n+](C)c1.N#CN=C=[N-]` [1-butyl-3-methylimidazolium dicyanamide], the speed of sound is recorded as 1750.2 ± 2.2 m/s (293.15 K), 1712.6 ± 2.2 m/s (308.15 K) and 1667.3 ± 2.2 m/s (323.15 K). Besides, the mass density is given as 1063.32 ± 0.97 kg/m3 (293.15 K), 1053.81 ± 0.95 kg/m3 (308.15 K) and 1044.42 ± 0.93 kg/m3 (323.15 K).

Regarding `CCCCCO` [pentan-1-ol], the speed of sound is reported as 1292.5 ± 1.3 m/s (293.15 K), 1242.4 ± 1.3 m/s (308.15 K) and 1192.8 ± 1.3 m/s (323.15 K). Besides, the mass density is, setting by setting: (293.15 K) 814.54 ± 0.24 kg/m3; (308.15 K) 803.53 ± 0.24 kg/m3; (323.15 K) 792.17 ± 0.24 kg/m3.

On to `CCC(C)O` (stereo unspecified) [butan-2-ol], for which the speed of sound is, setting by setting: (293.15 K) 1229.5 ± 0.9 m/s; (308.15 K) 1175.5 ± 0.8 m/s; (323.15 K) 1120.3 ± 0.8 m/s. Also, the mass density is 806.47 ± 0.12 kg/m3 (293.15 K), 793.92 ± 0.12 kg/m3 (308.15 K) and 780.44 ± 0.13 kg/m3 (323.15 K).

`CCCO` [propan-1-ol]: the speed of sound stood at 1223.4 ± 0.8 m/s (293.15 K), 1172.3 ± 0.8 m/s (308.15 K) and 1121.8 ± 0.8 m/s (323.15 K). In addition, the mass density is 803.87 ± 0.12 kg/m3 (293.15 K), 791.79 ± 0.12 kg/m3 (308.15 K) and 779.3 ± 0.13 kg/m3 (323.15 K).

With `CC(C)O` [propan-2-ol], the speed of sound by setting is: (293.15 K) 1157.3 ± 0.8 m/s; (308.15 K) 1104.8 ± 0.8 m/s; (323.15 K) 1051.6 ± 0.8 m/s. The mass density by setting is: (293.15 K) 785.4 ± 0.13 kg/m3; (308.15 K) 772.6 ± 0.13 kg/m3; (323.15 K) 759 ± 0.14 kg/m3.
